Among the data in US20170311608A1, “BACILLUS THURINGIENSIS SUBSP. AIZAWAI AND CYANTRANILIPROLE MIXTURES FOR DIAMONDBACK MOTH, CABBAGE LOOPER, BEET ARMYWORM, SOYBEAN LOOPER, CORN EARWORM, SOUTHWESTERN CORN BORER AND SUGARCANE BORER CONTROL” (priority 2016, published 2017) are Emax values, retold here.

Read-outs that look alike come from different tables or passages of the source.

Experiment [1] has as its system diamondback moth larvae. In words: Leaf dip test, diamondback moth larvae. The experiment is classed as in vivo. The following applies: Plutella xylostella, foliar, Bta 2.7 ppm, cyantraniliprole 0.1 ppm, mixture 2.7 ppm + 0.1 ppm, read-out: % Efficacy. An excerpt: The following examples illustrate the effectiveness of Bacillus thuringiensis subsp. aizawai and cyantraniliprole when controlling diamondback moth, cabbage looper, beet armyworm, soybean looper, corn earworm, southwestern corn borer and sugarcane borer. Xentari® was used as the source of Bacillus thuringiensis subsp. aizawai and Exirel® was used as the source of cyantraniliprole. The present invention is not limited to the products or formulation types used herein. In each example below, the studies were conducted as follows.
For these tests, standardized laboratory leaf dip methods were used to inoculate plant material with treatment(s). […] Synergy ratings were calculated for each test. […]
% Cexp=A+B−(AB/100), where % Cexp is the expected efficacy and “in which A and B are the control levels given by the single [insecticides]. […] Adopting a conservative approach, Applicant determined synergy to be present at ratios of >1.15. […]
In order to determine synergy, rates below normal field rate ranges must be used. If normal field rate ranges are used, all of the larvae would die (combining a lethal or near lethal dose of Bacillus thuringiensis subsp. aizawai with a lethal dose of cyantraniliprole would most likely lead to larvae death) in every treatment and synergy would not be able to be determined. […]

Experiment [2] concerns beet armyworm larvae. Kind of experiment: Leaf dip test, beet armyworm larvae. The following applies: Spodoptera exigua, foliar, Bta 2.7 ppm, cyantraniliprole 1.0 ppm, mixture 2.7 ppm + 1.0 ppm, read-out: % Efficacy. The format is in vivo. The protocol:
(§1) The present invention is not limited to the products or formulation types used herein. In each example below, the studies were conducted as follows.
(§2) For these tests, standardized laboratory leaf dip methods were used to inoculate plant material with treatment(s). Dry, treated leaves were placed into Petri dishes (100×25 mm) containing filter paper wetted with 500 μl of distilled H2O (“dH2O”). Each dish was then infested with between 5 and 10 larvae, dependent on species. Efficacy ratings were taken at specified intervals. Synergy ratings were calculated for each test.
(§3) % Cexp=A+B−(AB/100), where % Cexp is the expected efficacy and “in which A and B are the control levels given by the single [insecticides]. […] Adopting a conservative approach, Applicant determined synergy to be present at ratios of >1.15.

Experiment [3] concerns cabbage looper larvae. Kind of experiment: Leaf dip test, cabbage looper larvae. The format is in vivo. Particulars: Trichoplusia ni, foliar, Bta 2.7 ppm, cyantraniliprole 0.50 ppm, mixture 2.7 ppm + 0.50 ppm, read-out: % Efficacy. The procedure: as §1, §2, §3
The subject of experiment [4] is sugarcane borer larvae. In words: Leaf dip test, sugarcane borer larvae. The format is in vivo. Particulars: Diatraea saccharalis, foliar, Bta 2.7 ppm, cyantraniliprole 1.0 ppm, mixture 2.7 ppm + 1.0 ppm, read-out: % Efficacy. The procedure: as §1, §2, §3
Experiment [5] deals with southwestern corn borer larvae. Kind of experiment: Leaf dip test, southwestern corn borer larvae. The experiment is classed as in vivo, Diatraea grandiosella. Particulars: foliar, Bta 2.7 ppm, cyantraniliprole 0.1 ppm, mixture 2.7 ppm + 0.1 ppm, read-out: % Efficacy. The procedure:
as §1, §2, §3

Experiment [6] concerns soybean looper larvae. Kind of experiment: Leaf dip test, soybean looper larvae. The format is in vivo, Chrysodeixis includens. The following applies: foliar, Bta 27 ppm, cyantraniliprole 1.0 ppm, mixture 27 ppm + 1.0 ppm, read-out: % Efficacy. The protocol: as §1, §2, §3
Experiment [7] concerns corn earworm larvae. In words: Leaf dip test, corn earworm larvae. The format is in vivo. Particulars: Helicoverpa zea, foliar, Bta 27 ppm, cyantraniliprole 10.0 ppm, mixture 27 ppm + 10.0 ppm, read-out: % Efficacy. The protocol: as §1, §2, §3

As to `CNC(=O)c1cc(C#N)cc(C)c1NC(=O)c1cc(Br)nn1-c1ncccc1Cl` [Cyantraniliprole, 3-Bromo-1-(3-chloro-2-pyridinyl)-N-[4-cyano-2-methyl-6-(methylcarbamoyl)phenyl]-1H-pyrazole-5-carboxamide], the Emax at 0.1 ppm in experiment [1] (24 h after treatment) is 34%; in experiment [1] (48 h after treatment), 60%; in experiment [5] (24 h after treatment), 17%; in experiment [5] (48 h after treatment), 24%. Besides, the Emax at 1 ppm in experiment [2] (24 h after treatment) came to 22%; in experiment [2] (48 h after treatment), 36%; in experiment [4] (24 h after treatment), 42%; in experiment [4] (48 h after treatment) it was 42%; in experiment [6] (24 h after treatment), 4%; in experiment [6] (48 h after treatment) it was 25%. Besides, the Emax at 0.5 ppm came out at 18% in experiment [3] (24 h after treatment) and 38% in experiment [3] (48 h after treatment). The Emax at 10 ppm worked out at 49% in experiment [7] (24 h after treatment) and 51% in experiment [7] (48 h after treatment).
